# From patent US11541059B2, “Heterocyclic compounds and uses thereof” (Infinity Pharmaceuticals, Inc., priority 2014, dated 2023)
# Legend:
# [1] = tested on: human T cells; assay: Concanavalin A-induced model for activation of human T cells (IFN-γ); type: cell-based; settings: isoform selective concentrations
# [2] = Oral half-life; type: in vivo; settings: plasma
# Source text: Compound BB's oral exposure is high in rat, dog and monkey. Good oral bioavailability and low clearance in rodent and non-rodent animal species results in high oral exposure.
# [3] = Target organ toxicity (TOT) study, 10 days oral; type: in vivo; settings: rat
# Procedure: A target organ toxicity (TOT) study was performed in rats. […] This study assessed clinical observations/mortality, body weights, clinical pathology, toxicokinetics, and histopathology of select tissues. The tissues studied were: Adrenal gland, Bone marrow (femur), Brain, Small Intestine (including GALT), Heart, Large Intestine, Kidney, Stomach, Liver, Pancreas, Spleen, Testis, and Thymus. Doses were selected based on repeat-dose tolerability study, PK and plasma protein binding, and cellular IC50s for PI3K isoforms. The doses selected were: high-dose: 50 mg/kg/day, expected to inhibit α, β, δ, and γ PI3K isoforms; Mid-high dose: 20 mg/kg/day, expected to inhibit β, δ, and γ PI3K isoforms; Mid-low dose: 7.5 mg/kg, expected to inhibit γ PI3K isoform only; and Low-dose: 1 mg/kg/day, expected to inhibit γ PI3K isoform only.
# [4] = tested on: GL-261 tumors; assay: GL-261 glioma model with or without temozolomide; type: in vivo, mouse; settings: 15 mg/kg QD PO from the start of treatment, vs vehicle
# Procedure: TMZ was dosed IP 1×/day for 7 days.
# Animals: C57 Albino mice (male) from Jackson Labs, n=80. Parameters Evaluated:
# In life: Mice were dosed QD with Compound BB. Temozolomide was dosed QD IP, for 7 days. Tumor measurements and bodyweights were taken 2×/week, but caliper and xenogen measurements.
# End point analysis: Tumors were cut in half. One half was cut in half again with ½ fixed in 10% NBF the other was frozen in OCT for frozen sections. The remaining half was processed to single cell suspension and evaluated by FACS.
# PD satellite group—8 mice from the TMZ treated mice and 8 mice from the vehicle treated mice were sacrificed on day 7 post treatment. Tumors were processed to single cell suspension and evaluated by FACS.
# [5] = tested on: CD11b+ myeloid cells in 4T1 tumors; assay: Immunohistochemistry of tumor immune infiltrates (CD11b, CD68), 4T1; type: in vivo, mouse; settings: vs vehicle, day 13
# Procedure: Immunohistochemistry was performed to determine the distribution of immune cells within the tumor. In particular, CD11b myeloid cells were examined, as were regulatory vs. effector T cells (CD3, CD4, CD8, FoxP3). Briefly, IHC for CD11b or CD68+ was performed as follows. CD11b antibodies were available from Abcam, clone I-70, Catalog #ab 8878. CD68 antibodies were available from Abcam, clone FA-11, catalog #ab 53444. Tissues were fixed in cold methanol, air-dried, and then stained using a Res IHC Omni-UltraMap HRP XT protocol.
# Without being bound by a particular theory, the decrease in the pro-tumorigenic tumor associated myeloid cells can result in activation of cytotoxic T-cells and anti-tumor immunity. […] When the images were quantified as CD11b+ cells per total viable cells (FIG. 37E), a Student t-Test p-value of 0.0355 was obtained when comparing the Compound BB-treated cells to controls. When the images were quantified as CD11b+ stained area per total visible area (FIG. 37F), a Student t-Test p-value of 0.0441 was obtained when comparing the Compound BB-treated cells to controls. […] When the images were quantified as CD11b+ cells per total viable cells (FIG. 37G), a Student t-Test p-value of 0.0864 (d16) or 0.3967 (d22) was obtained when comparing the Compound BB-treated cells to controls. […]
# [6] = tested on: tumor cell inhibition of T cell proliferation; assay: Ex vivo T cell proliferation (CFSE) with CT26 tumor cells; type: in vivo, mouse; settings: tumors from treated mice
# Procedure: CT26 was an N-nitroso-N-methylurethane-(NNMU) induced, undifferentiated colon carcinoma cell line. It was cloned to generate the cell line designated CT26.WT (ATCC CRL-2638).
# The duration of the study was 1 week under treatment. 5-6 week old female, Balb/c mice (Jackson Labs) implanted subcutaneously with 5×10^5 CT26 cells in 100 μl PBS. CT26 cells were cultured in RPMI supplemented with 10% FBS. Dosing commenced when tumors reached an average volume of 500-600 mm^3.
# For group 3 (αPD-L1), the mice were dosed once, IP, 200 ug (200 uL from 1 mg/ml stock).
# Mice were monitored daily for adverse clinical effects. Body weights and tumor luminescent were measured two times per week. At the end of the study, tumors were harvested and cut into 3 parts; one piece for CTL killing assay, one piece for CSFE proliferation assay and one piece (split into two) for OCT/FFPE.
# Spleens from 3 vehicle treated tumor bearing mice were physically dissociated in T cell media and passed through a 70 micron filter. After red cell lysis, the cells were pooled, brought up in PBS and stained with CFSE (invitrogen). After washing, these cells were brought up in 20 ml T cell media. Half the cells received Dynal mouse activator beads (CD3/CD28 crosslinking at a 1:1 concentration). CD3/CD28 beads induce proliferation in splenocytes from tumor bearing mouse (data not shown). […]
# [7] = tested on: bone marrow cells differentiating into MDSCs (VEGF, ARG1); assay: Myeloid Derived Suppressor Cell differentiation assay; type: cell-based; settings: FIG. 24A, 24B
# Procedure: A similar experiment was performed on bone marrow cells differentiating into MDSCs.
# [8] = tested on: LLC tumor; assay: LLC tumor brei model with or without cyclophosphamide; type: in vivo, mouse; settings: BB 15 mg/kg QD PO; cyclophosphamide 50 mg/kg EOD IP, FIG. 48
# Procedure: In this experiment, treatment began when tumors reached approx. 150 mm^3—around day 12. Caliper and xenogen images were monitored. Treatment groups n=13-15/group. […] Samples for FACs analysis were collected on day 23 post implant. Using FACS, cells were assayed for the level of CD11b and Gr-1.
structure (smiles),measurement,setting,value
C[C@H](NC(=O)c1c(N)nn2cccnc12)c1cc2cccc(C#Cc3cnn(C)c3)c2c(=O)n1-c1ccccc1 [Compound BB],effect on IFN-γ,[1],little to no effect
same,half-life,"[2]; dog, 5 mg/kg",~7.1 h
same,half-life,"[2]; monkey, 5 mg/kg",~10.2 h
same,half-life,"[2]; rat, 7.5 mg/kg",~3.3 h
same,Decrease in body weights compared to vehicle,[3]; high dose animals (50 mg/kg/day),5-8%
same,"Histopathology, thymus","[3]; males ≥7.5 mg/kg/day, females 50 mg/kg/day",minimal/mild lymphoid depletion
same,Mortality and clinical signs,"[3]; oral 10 days, any dose level",No mortality or clinical signs were observed
same,"Tolerability, TOT study","[3]; oral, 1, 7.5, 20, 50 mg/kg/day",well-tolerated for 10 days
same,"Histopathology, spleen",[3]; primarily at doses ≥20 mg/kg/day,minimal/mild lymphoid depletion of the marginal zone and periarteriolar lymphoid sheaths (PALS)
same,"Tumor volume, GL-261 glioma model",[4],significant reduction in tumor volume
same,CD11b+ myeloid cell staining in viable regions of 4T1 tumors,[5],decrease in CD11b+ myeloid cell staining
same,Suppression of T cell proliferation by cells derived from CT26 tumors,[6],can release the suppression
same,VEGF and ARG1 in MDSC differentiation assay,[7],suppressed both VEGF (FIG. 24A) and ARG1 (FIG. 24B)
same,"Tumor growth, LLC tumor brei model",[8],reduced tumor growth by about the same amount
